Laboratory results published in patent US20060018857A1, “Conditioning surface-active preparation” (priority 2004, published 2006).

Columns and labels:
[1] = Sensory assessment of skin feel on the treated forearm; assay type: in vivo, human; details: FIG. 1; versus standard co-surfactant Cocamidopropylbetaine; inside of forearm
Excerpt: The conditioning properties of two surfactant mixtures were compared with one another by sensory assessment. After the sample composition had been completely absorbed onto the skin, the upper side of the middle and index fingers was slowly drawn without pressing over the treated inside of the forearm. If the skin surface was felt to be without friction, this corresponded to a soft skin feel.
In FIG. 1, marks in the left column favor the standard co-surfactant and marks in the right column favor the inventive co-surfactant for that property. In FIG. 1, square marks indicate a high degree of significance; diamonds indicate a medium degree of significance and circles indicate a low degree of significance (as indicated also by the length of the horizontal lines through the marks).

[2] = Half head test, shampoo versus standard; assay type: in vivo, human
Procedure: Each test was conducted on 10 volunteers by trained and skilled people. Each half of the head was prewashed and then treated with the corresponding products. During the test, performance properties, such as skin feel, were evaluated first, followed by such parameters as combability, feel, luster and volume.

[3] = Adsorption of sodium lauryl ether sulfate onto skin; design: species or system human; details: FIG. 4; versus standard co-surfactant cocoglutamate
[4] = FIG. 2, versus standard co-surfactant Cocamidopropylbetaine, no added polymer
[5] = FIG. 3, versus standard co-surfactant Cocamidopropylbetaine and a polymer

Laureth-7 Citrate
Skin feel (softness), sensory assessment [1]: felt to be softer | Combability of hair in the dry and wet state [2, 4]: can be combed far better both in the dry and in the wet state | Feel properties of hair [2, 4]: distinctly better | Conditioning properties ([2]; FIG. 2, versus standard co-surfactant Cocamidopropylbetaine, no added polymer, 10 volunteers): clearly superior conditioning properties | Combability of dry hair [2, 5]: improved combability of dry hair | Feel of the hair [2, 5]: more pleasant feel of the hair | Prevention of adsorption of sodium lauryl ether sulfate onto skin [3]: prevented considerably more effectively
